Reference: patent US8642799B2, “Cysteine protease inhibitors for the treatment of parasitic diseases” (Merck Canada Inc., priority 2007, dated 2014)

The compounds below were run against cruzipain (Trypanosoma cruzi, UniProt P25779) (assay: biochemical). Conditions: 50 pM cruzipain, pH 5.5, 15 minutes preincubation, 2 μM Z-Phe-Arg-AMC substrate.
Protocol: The assay solutions were mixed and incubated for 15 minutes at room temperature prior to the addition of 2 μM of Z-Phe-Arg-AMC substrate. […] Percent of inhibition were calculated by fitting experimental values to standard mathematical model for dose response curve.

cruzipain, sequence (P25779 123-467): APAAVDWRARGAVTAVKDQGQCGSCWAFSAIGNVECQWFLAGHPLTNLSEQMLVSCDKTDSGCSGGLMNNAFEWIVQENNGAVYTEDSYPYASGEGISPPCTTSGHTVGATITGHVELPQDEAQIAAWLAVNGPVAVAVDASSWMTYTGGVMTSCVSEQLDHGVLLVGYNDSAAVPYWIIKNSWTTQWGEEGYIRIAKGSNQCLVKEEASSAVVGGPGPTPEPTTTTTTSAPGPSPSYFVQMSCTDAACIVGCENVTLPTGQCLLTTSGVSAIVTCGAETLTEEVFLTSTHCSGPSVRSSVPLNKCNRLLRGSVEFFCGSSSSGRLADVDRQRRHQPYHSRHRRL

Row | IC50 | SMILES
1 | 9.3 nM | CC(C)(F)C[C@H](N[C@@H](c1ccc(-c2ccc([C@@H](O)C(F)F)cc2)cc1)C(F)(F)F)C(=O)NC(C#N)Cc1ccc(C(F)(F)F)cc1F (stereo partly drawn) [Example 37, (S)-2-{(S)-1-[4′-((R)-2,2-Difluoro-1-hydroxy-ethyl)-biphenyl-4-yl]-2,2,2-trifluoro-ethylamino}-4-fluoro-4-methyl-pentanoic acid [cyano-(2-fluoro-4-trifluoromethyl-benzyl)-methyl]-amide]
2 | 0.3 nM | CC(C)(F)C[C@H](N[C@@H](c1ccc(-c2ccc(C3(C(N)=O)CC3)cc2)cc1)C(F)(F)F)C(=O)N[C@H](C#N)Cc1ccc(C#N)cc1F [Example 38, 1-[4′-((S)-1-{(S)-1-[(S)-1-Cyano-2-(4-cyano-2-fluoro-phenyl)-ethylcarbamoyl]-3-fluoro-3-methyl-butylamino}-2,2,2-trifluoro-ethyl)-biphenyl-4-yl]-cyclopropanecarboxylic acid amide]
3 | 0.6 nM | CC(C)(F)C[C@H](N[C@@H](c1ccc(-c2ccc(-c3ccncc3)cc2)cc1)C(F)(F)F)C(=O)N[C@H](C#N)Cc1ccc(C#N)cc1F [Example 39, (S)-4-Fluoro-4-methyl-2-[(S)-2,2,2-trifluoro-1-(4′-pyridin-4-yl-biphenyl-4-yl)-ethylamino]-pentanoic acid [(S)-1-cyano-2-(4-cyano-2-fluoro-phenyl)-ethyl]-amide]
4 | 10.5 nM | CC(C)[C@H](N[C@@H](c1ccc(Br)cc1)C(F)(F)F)C(=O)N[C@H](C#N)Cc1ccccc1 [Example 40, (S)-2-[(S)-1-(4-Bromo-phenyl)-2,2,2-trifluoro-ethylamino]-N-((S)-1-cyano-2-phenyl-ethyl)-3-methyl-butyramide]
5 | 0.9 nM | CC(C)(O)Cc1ccc(-c2ccc([C@H](N[C@@H](CC(C)(C)F)C(=O)N[C@H](C#N)Cc3ccc(C#N)cc3F)C(F)(F)F)cc2)cc1 [Example 42, (S)-4-Fluoro-4-methyl-2-{(S)-2,2,2-trifluoro-1-[4′-(2-hydroxy-2-methyl-propyl)-biphenyl-4-yl]-ethylamino}-pentanoic acid [(S)-1-cyano-2-(4-cyano-2-fluoro-phenyl)-ethyl]-amide]
6 | 0.35 nM | CC(C)(F)C[C@H](N[C@@H](c1ccc(-c2ccc(C3(C(=O)N4CCOCC4)CC3)cc2)cc1)C(F)(F)F)C(=O)N[C@H](C#N)Cc1ccc(C#N)cc1F [Example 43, (S)-4-Fluoro-4-methyl-2-((S)-2,2,2-trifluoro-1-{4′-[1-(morpholine-4-carbonyl)-cyclopropyl]-biphenyl-4-yl}-ethylamino)-pentanoic acid [(S)-1-cyano-2-(4-cyano-2-fluoro-phenyl)-ethyl]-amide]
7 | 9.4 nM | CC(C)(F)C[C@H](N[C@@H](c1ccc(Br)cc1)C(F)(F)F)C(=O)N[C@H](C#N)Cc1ccc(C#N)cc1F [Example 44, (S)-2-[(S)-1-(4-Bromo-phenyl)-2,2,2-trifluoro-ethylamino]-4-fluoro-4-methyl-pentanoic acid [(S)-1-cyano-2-(4-cyano-2-fluoro-phenyl)-ethyl]-amide]
8 | 7.8 nM | CC(C)(F)C[C@H](N[C@@H](c1ccc(-c2ccc(-c3cc[n+]([O-])cc3)cc2)cc1)C(F)(F)F)C(=O)N[C@H](C#N)Cc1ccccc1 [Example 45, (S)-4-Fluoro-4-methyl-2-{(S)-2,2,2-trifluoro-1-[4′-(1-oxy-pyridin-4-yl)-biphenyl-4-yl]-ethylamino}-pentanoic acid ((S)-1-cyano-2-phenyl-ethyl)-amide]
9 | 1.5 nM | CC(C)(F)C[C@H](N[C@@H](c1ccc(-c2ccc(S(C)(=O)=O)cc2)cc1)C(F)(F)F)C(=O)N[C@H](C#N)Cc1ccc(C(F)(F)F)cc1F [Example 46, (S)-4-Fluoro-4-methyl-2-[(S)-2,2,2-trifluoro-1-(4′-methanesulfonyl-biphenyl-4-yl)-ethylamino]-pentanoic acid [(S)-cyano-(2-fluoro-4-trifluoromethyl-benzyl)-methyl]-amide]
10 | 0.1 nM | CC(C)[C@H](N[C@@H](c1ccc(-c2ccc(N3CCNCC3)cc2)cc1)C(F)(F)F)C(=O)N[C@H](C#N)Cc1ccccc1 [Example 47, 4-[4′-((S)-1-{(S)-1-[((S)-Benzyl-cyano-methyl)-carbamoyl]-2-methyl-propylamino}-2,2,2-trifluoro-ethyl)-biphenyl-4-yl]-piperazin-1-ium; chloride]
11 | 0.7 nM | CC(C)[C@H](N[C@@H](c1ccc(-c2ccc(C3(C(N)=O)CC3)cc2)cc1)C(F)(F)F)C(=O)N[C@H](C#N)Cc1ccccc1 [Example 48, 1-[4′-((S)-1-{(S)-1-[((S)-Benzyl-cyano-methyl)-carbamoyl]-2-methyl-propylamino}-2,2,2-trifluoro-ethyl)-biphenyl-4-yl]-cyclopropanecarboxylic acid amide]
12 | 5.6 nM | CC(C)[C@H](N[C@@H](c1ccc(-c2ccncc2)cc1)C(F)(F)F)C(=O)N[C@H](C#N)Cc1ccccc1 [Example 49, (S)-N-((S)-Benzyl-cyano-methyl)-3-methyl-2-[(S)-2,2,2-trifluoro-1-(4-pyridin-4-yl-phenyl)-ethylamino]-butyramide]
13 | 3.2 nM | CC(C)[C@H](N[C@@H](c1ccc(-c2ccc([C@@H](O)C(F)F)cc2)cc1)C(F)(F)F)C(=O)N[C@H](C#N)Cc1ccccc1 [Example 50, (S)-N-((S)-Benzyl-cyano-methyl)-2-{(S)-1-[4′-((R)-2,2-difluoro-1-hydroxy-ethyl)-biphenyl-4-yl]-2,2,2-trifluoro-ethylamino}-3-methyl-butyramide]
14 | 2.8 nM | CC(C)(F)C[C@H](N[C@@H](c1ccc(-c2ccc(C3(C(=O)NCCO)CC3)cc2)cc1)C(F)(F)F)C(=O)N[C@H](C#N)Cc1ccccc1 [Example 52, 1-[4′-((S)-1-{(S)-1-[((S)-Benzyl-cyano-methyl)-carbamoyl]-3-fluoro-3-methyl-butylamino}-2,2,2-trifluoro-ethyl)-biphenyl-4-yl]-cyclopropanecarboxylic acid (2-hydroxy-ethyl)-amide]
15 | 3.1 nM | COC(=O)CNC(=O)C1(c2ccc(-c3ccc([C@H](N[C@@H](CC(C)(C)F)C(=O)N[C@H](C#N)Cc4ccccc4)C(F)(F)F)cc3)cc2)CC1 [Example 53, ({1-[4′-((S)-1-{(S)-1-[((S)-Benzyl-cyano-methyl)-carbamoyl]-3-fluoro-3-methyl-butylamino}-2,2,2-trifluoro-ethyl)-biphenyl-4-yl]-cyclopropanecarbonyl}-amino)-acetic acid methyl ester]
16 | 9.4 nM | CC(C)(F)C[C@H](N[C@@H](c1ccc(-c2ccc(C3(C(=O)NCC(F)(F)F)CC3)cc2)cc1)C(F)(F)F)C(=O)N[C@H](C#N)Cc1ccccc1 [Example 54, 1-[4′-((S)-1-{(S)-1-[((S)-Benzyl-cyano-methyl)-carbamoyl]-3-fluoro-3-methyl-butylamino}-2,2,2-trifluoro-ethyl)-biphenyl-4-yl]-cyclopropanecarboxylic acid (2,2,2-trifluoro-ethyl)-amide]
17 | 1.9 nM | CC(C)(F)C[C@H](N[C@@H](c1ccc(-c2ccc(C3(C(=O)NCC(N)=O)CC3)cc2)cc1)C(F)(F)F)C(=O)N[C@H](C#N)Cc1ccccc1 [Example 55, 1-[4′-((S)-1-{(S)-1-[((S)-Benzyl-cyano-methyl)-carbamoyl]-3-fluoro-3-methyl-butylamino}-2,2,2-trifluoro-ethyl)-biphenyl-4-yl]-cyclopropanecarboxylic acid carbamoylmethyl-amide]
